According to patent CN113004196A, “N-(苯甲氧基)-2-氯烟酰胺类化合物及其制备方法和应用” (Zhejiang University of Technology ZJUT, priority 2021, dated 2021):

Experiments:
[1] = test system: bentgrass (Agrostis) seeds [剪股颖(Agrostis)的种子]; experiment: Herbicidal activity test, seed germination inhibition in 24-well plate, bentgrass; assay type: in vivo
[2] = test system: lettuce seeds [生菜(Lettuce)种子]; experiment: Herbicidal activity test, seed germination inhibition in 24-well plate, lettuce; assay type: in vivo; settings: 1 mM

Structure (SMILES) | inhibition of germination of Agrostis seeds ([1]; 33 μM) | inhibition of lettuce seeds [2] | also measured
O=C(NOCc1cnc(Cl)s1)c1cccnc1Cl [I-1] | 较好的抑制 | 一定抑制作用 | –
O=C(NOCc1ccccc1Cl)c1cccnc1Cl [I-14] | – | – | inhibition of germination of Agrostis seeds ([1]; 333 μM): 完全抑制
O=C(NOCc1ccc(Cl)cc1Cl)c1cccnc1Cl [I-2] | – | 一定抑制作用 | –
O=C(NOCc1ccccc1Br)c1cccnc1Cl [I-10] | 较好的抑制 | – | –
CC(C)(C)c1ccc(CONC(=O)c2cccnc2Cl)cc1 [I-8] | 较好的抑制 | – | inhibition of germination of Agrostis seeds ([1]; 10 μM): 较好的抑制
O=C(NOCc1ccc(Br)cc1)c1cccnc1Cl [I-5] | – | 一定抑制作用 | –
